Measured values from article PMC12062478, “Screening herbal and natural product libraries to aid discovery of novel allosteric modulators of human P2X7” (Purinergic Signalling, 2024).
Values joined by “and” are separate entries in the source; they are usually repeats but may differ in a detail not shown here. Equal values may be shown once. Read-outs that look alike come from different tables or passages of the source. Numbered stars: 1 amine (or outer) side, 2 acyl side, 3 side chain; on linkers, the order of the positions; unused ones are H or OH. Bridge positions count the residues as written; N and C are the ends. Square brackets hold non-standard residues; d marks the D form. Peptide text beside a SMILES is read from it. I, II: the chains in the order shown. Actinocin(9to1) = Cc1c2oc3c(C)ccc(C(=O)[*:1])c3nc-2c(C(=O)[*:2])c(N)c1=O; dHica = CC(C)C[C@@H](O)C(=O)O; NMeV = CN[C@H](C(=O)O)C(C)C; NMeA = CN[C@@H](C)C(=O)O; βAla = NCCC(=O)O; Sar = CNCC(=O)O

Target: T1, P2X7 (Homo sapiens, UniProt Q99572)
T1 construct: expressed in transfected cells
T1 sequence (Q99572 1-595): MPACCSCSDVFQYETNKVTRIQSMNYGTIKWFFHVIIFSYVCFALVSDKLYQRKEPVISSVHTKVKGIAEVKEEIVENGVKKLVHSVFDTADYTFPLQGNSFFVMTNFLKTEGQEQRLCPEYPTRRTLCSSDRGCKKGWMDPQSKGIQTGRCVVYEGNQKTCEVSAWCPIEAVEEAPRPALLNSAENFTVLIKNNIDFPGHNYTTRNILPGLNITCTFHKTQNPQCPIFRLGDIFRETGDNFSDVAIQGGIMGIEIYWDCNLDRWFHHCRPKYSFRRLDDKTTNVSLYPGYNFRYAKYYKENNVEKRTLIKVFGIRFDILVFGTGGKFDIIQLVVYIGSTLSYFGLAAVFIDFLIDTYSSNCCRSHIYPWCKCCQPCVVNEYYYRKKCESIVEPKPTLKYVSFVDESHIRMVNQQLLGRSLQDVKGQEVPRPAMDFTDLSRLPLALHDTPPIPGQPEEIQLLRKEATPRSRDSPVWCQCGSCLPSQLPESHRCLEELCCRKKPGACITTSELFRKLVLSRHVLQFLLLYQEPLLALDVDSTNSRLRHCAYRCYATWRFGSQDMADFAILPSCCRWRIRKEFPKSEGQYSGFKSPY
Experiment: ATP-induced YO-PRO-1 dye uptake in HEK-hP2X7 cells
Assay type: cell-based
Settings: for P2X7 response (% of control): compound 10 µM injected 60 s before ATP; for Effect on ATP-mediated YO-PRO-1 uptake: 10 µM, 10 min pre-incubation; for Effect on YO-PRO-1 uptake at high concentrations: > 30 µM, HEK-hP2X7; for Mechanism of action from ATP concentration–response curve: compound 10 µM
Experimental: HEK-hP2X7 or HEK-hP2X4 cells were plated at 2.5 × 10^4 cells per well (100 µL volume) the day before experiments into poly-D-lysine (Merck Millipore) coated 96-well plates (NUNC, Fisher Scientific #167-008). The membrane impermeant dye YO-PRO-1 iodide (Life Technologies, Fisher Scientific) was used at a final concentration of 2 µM in low divalent buffer (145 mM NaCl, 5 mM KCl, 0.2 mM CaCl2, 13 mM glucose, 10 mM HEPES, pH 7.3, osm 300–310). Media were removed from the plate, and 90 µL of YO-PRO-1 buffer was added per well. Plates were warmed to 37 °C for 5 min before recording. Data was acquired on a Flexstation 3 plate reader (Molecular Devices) using excitation wavelength 490 nm, emission wavelength 520 nm, and six reads per well (PMT medium). […] […] Pipette height was set to 80 µL and the rate of injection was 4.
YO-PRO-1 dye uptake assay data is plotted as a percentage of control where control responses are measured in the absence of plant extract. Cell viability data is plotted as a percentage of control or background-corrected fluorescence data. Concentration–response graphs were plotted using GraphPad Prism v6 with a non-linear regression fit (variable slope). IC50 values were generated from collated datasets from a minimum of three independent experiments. Statistical differences were determined by one-way ANOVA statistical tests performed using GraphPad Prism v6 with Dunnett’s multiple comparison post hoc test. Significance was taken as P ≤ 0.05.
We acquired a natural product library (Set IV) containing 419 compounds from NCI DTP and tested these on P2X7 responses using a YO-PRO-1 dye uptake in HEK293 cells stably expressing human P2X7 (HEK-hP2X7). […] This allowed us to assess for any immediate effect of the injected compound, and secondly, it allowed for any potential negative modulators to be pre-incubated with P2X7.

[1] = HEK-hP2X7, 10 min pre-treatment, ATP 1 mM, read-out: IC50 value (95% CI)
[2] = screen for potential negative allosteric modulators
[3] = HEK-hP2X7, NCI Natural Product Set IV compounds, Fig. 1F, read-out: IC50 (dose inhibition experiments)

## Nc1nc(=O)c2c([nH]1)NCC(CNc1ccc(C(=O)N[C@@H](CCC(=O)O)C(=O)O)cc1)N2C=O (mixture of isomers) [Folinic acid, reference compound]
Screen for PAM activity
  P2X7 response (% of control): 160.00 % of control

## Nc1ncnc2c1ncn2[C@@H]1O[C@H](COP(=O)(O)OP(=O)(O)OP(=O)(O)O)[C@@H](O)[C@H]1O [ATP, reference compound]
ATP with vehicle (DMSO), no modulator
  EC50: 131 µM and 110 µM

## O=C1CSC(=O)N1C(CCc1ccncc1)COc1ccc(-c2cccc([N+](=O)[O-])c2)cc1 (centres unmarked) [AZ11645373, reference compound]
[1]
  IC50: 0.153 µM

## COc1cc(Cc2nccc3cc(OC)c(OC)cc23)c(C(C)=O)cc1OC [Acetopapaverine]
[2]
  P2X7 response (% of control): 34.92 % of control

## COc1cc2c(c3c1c(=O)c1ccccc1n3C)C=CC(C)(C)O2 [Acronine]
ATP 1 mM
  Effect on ATP-mediated YO-PRO-1 uptake: able to reduce ATP-mediated YO-PRO-1 uptake
[2]
  P2X7 response (% of control): 1.05 % of control

## Cc1c2oc3c(C)ccc(C(=O)N[C@@H]4C(=O)N[C@H](C(C)C)C(=O)N5CCC[C@H]5C(=O)N(C)CC(=O)N(C)[C@@H](C(C)C)C(=O)O[C@@H]4C)c3nc-2c(C(=O)N[C@@H]2C(=O)N[C@H](C(C)C)C(=O)N3CCC[C@H]3C(=O)N(C)CC(=O)N(C)[C@@H](C(C)C)C(=O)O[C@@H]2C)c(N)c1=O [Actinomycin] (I: T[dV]P[Sar][NMeV] / II: T[dV]P[Sar][NMeV]; ester I:1-I:C, II:1-II:C; linker I:N-II:N via Actinocin(9to1))
Screen for PAM activity
  P2X7 response (% of control): 188.44 % of control

## COc1cc([C@@H]2c3cc4c(cc3C[C@H]3COC(=O)[C@@H]32)OCO4)cc(OC)c1OC [Anthricin]
[2]
  P2X7 response (% of control): 30.94 % of control

## NC(=O)C#CC(N)=O [Aquamycin]
[2]
  P2X7 response (% of control): 15.18 % of control

## CC(=O)O[C@H]1C(=O)[C@@]2(C)[C@H]([C@H](OC(=O)c3ccccc3)[C@]3(O)C[C@H](O)C(C)=C1C3(C)C)[C@]1(OC(C)=O)CO[C@@H]1C[C@@H]2O [Baccatin III]
Screen for PAM activity
  P2X7 response (% of control): 136.25 % of control

## COc1c2ccoc2cc2oc(=O)ccc12 [Bergapten]
  Effect on YO-PRO-1 uptake at high concentrations: reduction of YO-PRO-1 uptake in hP2X7 cells at high concentrations

## C[C@@H]1C[C@H](C)C[C@H](C)[C@@H](O)CC(=O)O[C@H]([C@@H]2CCC[C@H]2C(=O)O)C/C=C/C=C(/C#N)[C@H](O)[C@@H](C)C1 [Borrelidin]
[2]
  P2X7 response (% of control): 42.93 % of control

## C[C@H]1Oc2cc3c(-c4c(O)cc(O)c5c(O)c6c(cc45)O[C@H](C)[C@@H](C)C6=O)c(O)cc(O)c3c(O)c2C(=O)[C@@H]1C [Chaetochromin A]
[2]
  P2X7 response (% of control): 12.08 % of control

## CC[C@H](C)C(=O)O[C@H]1CCC=C2C=C[C@H](C)[C@H](CC[C@@H](O)C[C@@H](O)CC(=O)O)[C@H]21 [Compactin]
Screen for PAM activity
  P2X7 response (% of control): 139.71 % of control

## CC1(C)CCC[C@]2(C)C3=C(CC[C@@H]12)C(=O)OC3 [Confertifolin]
ATP 1 mM
  Effect on ATP-mediated YO-PRO-1 uptake: able to reduce ATP-mediated YO-PRO-1 uptake
[3]
  IC50: 3.86 µM
  Mechanism of action from ATP concentration–response curve: potential non-competitive mechanism of action
[2]
  P2X7 response (% of control): 9.72 % of control

## C/C=C/C(=O)O [Crotonic acid]
Screen for PAM activity
  P2X7 response (% of control): 142.15 % of control

## COc1cc(/C=C/C(=O)CC(=O)/C=C/c2ccc(O)c(OC)c2)ccc1O [Curcumin]
Screen for PAM activity
  P2X7 response (% of control): 144.58 % of control

## CC[C@H](C)[C@@H]1NC(=O)[C@@H]2CCCN2C(=O)[C@@H](CC(C)C)OC(=O)CCNC(=O)[C@H](C)N(C)C(=O)[C@H](C(C)C)N(C)C1=O [Destrusin B] (cyclo([dHica]PI[NMeV][NMeA][βAla]))
[2]
  P2X7 response (% of control): 46.65 % of control

## O=C(O)c1cc(O)c(O)c(OC(=O)c2cc(O)c(O)c(O)c2)c1 [Digallic acid]
ATP 1 mM
  Effect on ATP-mediated YO-PRO-1 uptake: able to reduce ATP-mediated YO-PRO-1 uptake
[3]
  IC50: 4.05 µM
  Mechanism of action from ATP concentration–response curve: potential non-competitive mechanism of action
[2]
  P2X7 response (% of control): 0 % of control

## O=C(O[C@@H]1Cc2c(O)cc(O)cc2O[C@@H]1c1ccc(O)c(O)c1)c1cc(O)c(O)c(O)c1 [ECG, epicatechin gallate]
IC50 value (95% CI)
  IC50: 4.96 µM

## O=c1c(-c2ccc(O)cc2)coc2cc(O)cc(O)c12 [Genistein]
  Effect on YO-PRO-1 uptake at high concentrations: reduction of YO-PRO-1 uptake in hP2X7 cells at high concentrations
IC50 value (95% CI)
  IC50: 49.7 µM

## COc1ccc2c(c1OC)CN1CCc3cc4c(cc3[C@@H]1C2)OCO4 [Hydroberberine]
[2]
  P2X7 response (% of control): 9.75 % of control

## CC(=O)OC(C)C1C2=C(C(=O)C[C@]1(C)O)C(=O)c1c(ccc(-c3ccc4c(c3O)C(=O)C3=C(C4=O)C(C(C)OC(C)=O)[C@@](C)(O)CC3=O)c1O)C2=O (some centres unmarked) [Julimycin II]
Screen for PAM activity
  P2X7 response (% of control): 180.28 % of control

## O=c1c(O)c(-c2ccc(O)cc2)oc2cc(O)cc(O)c12 [Kampferol, kaempferol]
[1]
  IC50: 40 µM

## CCCCC[C@@H](O)[C@H]1C(=O)O[C@H](C)[C@@H](O)/C=C/C=C/C=C/C=C/C=C(\C)[C@@H](O)[C@H](O)[C@H](O)C[C@H](O)C[C@H](O)C[C@H](O)C[C@H](O)C[C@@H]1O [Lagosin]
Screen for PAM activity
  P2X7 response (% of control): 148.84 % of control

## CC(=O)CCC(=O)O [Levullinic acid]
Screen for PAM activity
  P2X7 response (% of control): 134.82 % of control

## Nc1ncnc2c1ncn2C1OCC(O)C1O (centres unmarked) [MLS003170979]
Screen for PAM activity
  P2X7 response (% of control): 129.73 % of control

## CCCn1cc2c3c(cccc31)[C@H]1C[C@@H](C)CN(C)[C@@H]1C2.O=C(O)C(O)C(O)C(=O)O [NSC332294]
[2]
  P2X7 response (% of control): 29.09 % of control

## COc1c(OC)c2c3c(nccc3c1OC)C(=O)c1cc(O)ccc1-2 [NSC785143]
Screen for PAM activity
  P2X7 response (% of control): 149.00 % of control

## c1cc2c(c3c1C[C@@H]1NCCc4cc5c(c-3c41)OCO5)OCO2 [NSC785157]
Screen for PAM activity
  P2X7 response (% of control): 152.97 % of control

## COc1cc2c(cc1O)C[C@H]1c3c(cc(OC)c(O)c3-2)CCN1C [NSC785158]
[2]
  P2X7 response (% of control): 49.59 % of control

## COc1cc2c3c(c1O)-c1cc(O)ccc1C[C@H]3N(C)CC2 [NSC785167]
Screen for PAM activity
  P2X7 response (% of control): 125.18 % of control

## COc1cc2c3c(c1O)Oc1ccc(cc1)C[C@@H]1c4c(cc(OC)c(OC)c4Oc4ccc(cc4)C[C@@H]3N(C)CC2)CCN1C [NSC785173]
Screen for PAM activity
  P2X7 response (% of control): 148.84 % of control

## COc1cc2c3c(c1O)-c1cc(N(Cc4ccccc4)Cc4ccccc4)ccc1CC3N(C)CC2 (centres unmarked) [NSC785176]
Screen for PAM activity
  P2X7 response (% of control): 159.37 % of control

## COc1cc2c3c(c1O)-c1cc(O)ccc1CC3N(C)CC2 (centres unmarked) [NSC785186]
Screen for PAM activity
  P2X7 response (% of control): 146.91 % of control

## COc1ccc2c(c1OC)-c1c(OC)c(OC)cc3c1[C@H](C2)NCC3 [NSC785187]
Screen for PAM activity
  P2X7 response (% of control): 127.21 % of control

## COC1C(C)OC(OC2CC(C)(O)Cc3cc4c(c(O)c32)C(=O)c2c(O)cc3c(c2C4=O)OC2OC3(C)C(O)C(N(C)C)C2O)C(OC)C1(C)OC (centres unmarked) [Nogamycin]
Screen for PAM activity
  P2X7 response (% of control): 155.77 % of control
